Literature values, collected in patent publication US20210000933A1, “TUMOR VACCINE” (CELL-MEDICINE, INC., priority 2019, published 2021).
Read-outs that look alike come from different tables or passages of the source.

Legend:
[1] = system: brain tumor
[2] = system: newly diagnosed glioblastoma; conditions: bevacizumab used together with the standard therapy
[3] = 22 brain tumor cases, PDT then standard therapy
[4] = newly diagnosed glioblastoma cases (13 cases)

Molecule | Side reactions ([1]; 22 brain tumor cases) | 6-month progression-free survival rate [1, 3] | 12-month postoperative overall survival rate [1, 3] | mOS ([1]; glioblastoma cases) | mPFS ([1]; glioblastoma cases) | 6-month progression-free survival rate [1, 4] | 12-month postoperative overall survival rate [1, 4] | mOS [2] | mPFS [2]
C=Cc1c(C)c2cc3nc(c(CC(=O)N[C@@H](CC(=O)O)C(=O)O)c4[nH]c(cc5nc(cc1[nH]2)C(C)=C5CC)c(C)c4C(=O)O)[C@@H](CCC(=O)O)[C@@H]3C [talaporphin sodium, talaporfin sodium] | observed for only four cases, and all of them were mild | 91% | 95.5% | 24.8 months | 12.0 months | 100% | 100% | – | –
bevacizumab: antibody drug having a tumor neovascularization inhibitory effect | – | – | – | – | – | – | – | 15.7 to 16.8 months | 10.6 to 10.7 months
